Test results reported in patent US20180282281A1, “IMMUNOREGULATORY AGENTS” (FLEXUS BIOSCIENCES, INC., priority 2014, published 2018).

molecular target: T1, human IDO1 (Homo sapiens, UniProt P14902); assay: HEK293 human IDO1 cell-based IDO inhibition assay; conditions: HEK293 cells stably expressing human IDO1; 20 hours incubation; absorbance at 490 nm (Ehrlich reagent); 500 nM reference standard = 100% inhibition; read-out: HEK Human IDO-1 Potency
T1 construct: expressed in transfected cells
Procedure: 1HEK293 cells were transfected with a pCDNA-based mammalian expression vector harboring human IDO1 cDNA (NM 002164.2) by electroporation. They were cultured in medium (DMEM with 10% FBS) containing 1 mg/ml G418 for two weeks. Clones of HEK293 cells that stably expressed human IDO1 protein were selected and expanded for IDO inhibition assay.
The human IDOL/HEK293 cells were seeded at 10,000 cells per 50 μL per well with RPMI/phenol red free media contains 10% FBS in a 384-well black wall clear bottom tissue culture plate (Matrix Technologies LLC) 100 nL of certain concentration of compound was then added to each well using ECHO liquid handling systems. The cells were incubated for 20 hours in 37° C. incubator with 5% CO2.
The compound treatments were stopped by adding Trichloroacetic Acid (Sigma-Aldrich) to a final concentration at 0.2%. The cell plate was further incubated at 50° C. for 30 minute. The equal volume supernatant (20 μL) and 0.2% (w/v) Ehrlich reagent (4-dimethylaminobenzaldehyde, Sigma-Aldrich) in glacial acetic acid were mixed in a new clear bottom 384-well plate. This plate was then incubated at room temperature for 30 minute. The absorbance at 490 nm was measured on Envision plate reader.

T1 sequence (P14902 whole entry): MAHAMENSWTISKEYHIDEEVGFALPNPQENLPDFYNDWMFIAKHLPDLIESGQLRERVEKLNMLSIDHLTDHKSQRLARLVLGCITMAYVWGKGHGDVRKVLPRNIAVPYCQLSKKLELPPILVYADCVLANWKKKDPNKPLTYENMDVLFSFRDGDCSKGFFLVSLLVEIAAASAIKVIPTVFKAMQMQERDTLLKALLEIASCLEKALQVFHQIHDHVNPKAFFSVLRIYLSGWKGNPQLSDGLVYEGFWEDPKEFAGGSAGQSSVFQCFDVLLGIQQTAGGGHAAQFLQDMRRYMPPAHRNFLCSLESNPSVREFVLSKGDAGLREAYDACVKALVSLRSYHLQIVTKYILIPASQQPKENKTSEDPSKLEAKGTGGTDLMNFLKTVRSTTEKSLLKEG

“N-(4-chlorophenyl)-2-(trans-4-(6-fluoroquinolin-4-yl)-1-hydroxycyclohexyl) propanamide [Example 230]” and “N-(4-chlorophenyl)-2-(trans-4-(6-fluoroquinolin-4-yl)-1-hydroxycyclohexyl) propanamide [Example 229]” cannot be ordered by IC50: under 250 nM for the first, under 50 nM for the second.

same assay, conditions: read-out: HEK Human IDO-1 Potency

CC(C(=O)O)c1ccc(C[C@@H](C(=O)Nc2ccc(Cl)cc2)[C@H]2CC[C@@H](c3ccnc4ccc(F)cc43)CC2)cc1 (mixture of isomers) [Example 137, 2-(4-((R)-3-((4-Chlorophenyl)amino)-2-((cis)-4-(6-fluoroquinolin-4-yl)cyclohexyl)-3-oxopropyl)phenyl)propanoic Acid] and CC(C(=O)O)c1ccc(C[C@@H](C(=O)Nc2ccc(Cl)cc2)[C@H]2CC[C@@H](c3ccnc4ccccc43)CC2)cc1 (single isomer, unassigned) [Example 87a] cannot be ordered by IC50: under 50 nM for the first, under 50 nM for the second.

First: CC1(CC(=O)NC2(C)CCCCC2)CCN(c2ccnc3ccc(F)cc23)CC1 [Example 242, 2-(1-(6-Fluoroquinolin-4-yl)-4-methylpiperidin-4-yl)-N-(1-methylcyclohexyl)acetamide]
Second: CC1(CC(=O)Nc2cncnc2)CCN(c2ccnc3ccc(F)cc23)CC1 [Example 122]
The IC50 of the first is lower: under 50 nM for the first, over 250 nM for the second. The first is the more potent here.

COCC(C(=O)Nc1ccc(F)cc1)N1CCN(c2ccnc3ccc(F)cc23)CC1 (racemic) [Example 134, (±)—N-(4-Fluorophenyl)-2-(4-(6-fluoroquinolin-4-yl)piperazin-1-yl)-3-methoxypropanamide] and CCCC(C(=O)Nc1ccc(Cl)cc1)N1CCN(c2ccnc3ccc(F)cc23)CC1 (single isomer, unassigned) [Example 245, N-(4-Chlorophenyl)-2-(4-(6-fluoroquinolin-4-yl)piperazin-1-yl)pentanamide] cannot be ordered by IC50: under 250 nM for the first, under 250 nM for the second.

Going from C[C@@H](C(=O)Nc1ccc(Cl)cc1)[C@H]1CC[C@H](c2ccnc3ccnn32)CC1 (single isomer, unassigned) [Example 144d] to C[C@H](C(=O)Nc1ccc(Cl)cc1)[C@H]1CC[C@H](c2ccnc3ncccc32)CC1 (single isomer, unassigned) [Example 148c], the IC50 falls from over 250 nM to under 50 nM. The second is the more potent here.

First: CC(C(=O)Nc1ccc(Cl)cc1)C1CCC(c2ccnc3cn[nH]c23)CC1 (racemic) [Example 149, (±)-2-(Cis- and trans-4-(1H-pyrazolo[4,3-b]pyridin-7-yl)cyclohexyl)-N-(4-chlorophenyl)propanamide]
Second: C[C@@H](C(=O)Nc1ccc(Cl)cc1)[C@H]1CC[C@@H](c2ccnc3cn[nH]c32)CC1 (single isomer, unassigned) [Example 150b]
The IC50 of the first is lower: under 50 nM for the first, over 250 nM for the second. The first is the more potent here.

First: C[C@@H](C(=O)Nc1ccc(Cl)cc1)[C@H]1CC[C@@H](c2ccnc3c2ncn3C)CC1 (single isomer, unassigned) [Example 251b, N-(4-chlorophenyl)-2-(4-(3-methyl-3H-imidazo[4,5-b]pyridin-7-yl)cyclohexyl)propanamide]
Second: C[C@@H](C(=O)Nc1ccc(Cl)cc1)[C@H]1CC[C@@H](c2ccnc3ccc(I)cc32)CC1 (single isomer, unassigned) [Example 152b]
The IC50 of the first is higher: over 250 nM for the first, under 50 nM for the second. The second is the more potent here.

C[C@@H](C(=O)Nc1ccc(Cl)c(O)c1)[C@H]1CC[C@@H](c2ccnc3ccc(F)cc32)CC1 [Example 239, (R)-N-(4-chloro-3-hydroxyphenyl)-2-(cis-4-(6-fluoroquinolin-4-yl)cyclohexyl)propanamide] and C[C@@H](C(=O)Nc1cccc(Cl)c1)[C@H]1CC[C@@H](c2ccnc3ccc(F)cc32)CC1 [Example 65, (R)-N-(3-chloropehnyl)-2-((cis)-4-(6-fluoroqinolin-4-yl)cyclohexyl)propanamide] cannot be ordered by IC50: under 50 nM for the first, under 50 nM for the second.

Compared with CCC(C(=O)Nc1ccc(Cl)cc1)[C@H]1CC[C@@H](Oc2ccnc3ccc(C(F)(F)F)cc23)CC1 (mixture of isomers) [Example 89, (±)—N-(4-Chlorophenyl)-2-((cis)-4-((6-(trifluoromethyl)quinolin-4-yl)oxy)cyclohexyl)butanamide], CCC(C(=O)Nc1ccc(Cl)cc1)[C@H]1CC[C@@H](Oc2cc(C(F)(F)F)nc3ccccc23)CC1 (single isomer, unassigned) [Example 88a, N-(4-Chlorophenyl)-2-((cis)-4-((2-(trifluoromethyl)quinolin-4-yl)oxy)cyclohexyl)butanamide] is lower in IC50: over 250 nM for the first, under 50 nM for the second.

CCOc1ccc(NC(=O)C(C)N2CCC(Oc3ccnc4ccc(F)cc34)CC2)cc1 (stereo not drawn) [compound 100] and Cc1ccc(NC(=O)C(C)N2CCC(Oc3ccnc4ccc(F)cc34)CC2)cc1 (stereo not drawn) [compound 101] cannot be ordered by IC50: under 50 nM for the first, under 50 nM for the second.

CC(C(=O)Nc1ccc(F)cc1)N1CCC(Oc2ccnc3ccc(F)cc23)CC1 (stereo not drawn) [compound 99] and Cc1ccc(NC(=O)C(C)N2CCC(Oc3ccnc4ccc(F)cc34)CC2)cc1 (single isomer, unassigned) [compound 109] cannot be ordered by IC50: under 50 nM for the first, under 50 nM for the second.

First: CCC(C(=O)Nc1ccc(Cl)cc1)[C@H]1CC[C@@H](Oc2ccnc3ccc(C(F)(F)F)cc23)CC1 (single isomer, unassigned) [Example 89b, N-(4-Chlorophenyl)-2-((cis)-4-((6-(trifluoromethyl)quinolin-4-yl)oxy)cyclohexyl)butanamide]
Second: CCC(C(=O)Nc1ccc(Cl)cc1)[C@H]1CC[C@@H](Oc2cc(C(F)(F)F)nc3ccccc23)CC1 (mixture of isomers) [Example 88, (±)—N-(4-Chlorophenyl)-2-((cis)-4-((2-(trifluoromethyl)quinolin-4-yl)oxy)cyclohexyl)butanamide]
The IC50 of the first is higher: over 250 nM for the first, under 50 nM for the second.

Compared with C[C@@H](C(=O)Nc1ccccc1Oc1ccccc1)[C@H]1CC[C@@H](c2ccnc3ccc(F)cc32)CC1 [Example 73a, (R)-2-((cis)-4-(6-fluoroquinolin-4-yl)cyclohexyl)-N-(2-phenoxyphenyl)propanamide], CCOc1ccc(NC(=O)[C@H](C)[C@H]2CC[C@@H](c3ccnc4ccc(F)cc43)CC2)cc1 [Example 78, (R)-N-(4-ethoxyphenyl)-2-((cis)-4-(6-fluoroquinolin-4-yl)cyclohexyl)propanamide] is lower in IC50: over 250 nM for the first, under 50 nM for the second. The second is the more potent here.

COc1ncc(NC(=O)CC2(C)CCN(c3ccnc4ccc(F)cc34)CC2)cn1 [Example 124] and O=C(CC1CCN(c2ccnc3ccc(F)cc23)CC1)Nc1ccc(F)cc1 [Example 115, N-(4-Fluorophenyl)-2-(1-(6-fluoroquinolin-4-yl)piperidin-4-yl)acetamide] cannot be ordered by IC50: over 250 nM for the first, over 250 nM for the second.

C[C@@H](C(=O)Nc1ccc(C(F)(F)F)cc1)[C@H]1CC[C@@H](c2ccnc3ccc(F)cc32)CC1 [Example 60, (R)-2-((cis)-4-(6-fluoroquinolin-4-yl)cyclohexyl)-N-(4-(trifluoromethyl)phenyl)propanamide] and C[C@@H](C(=O)Nc1cccc(C(F)(F)F)c1)[C@H]1CC[C@@H](c2ccnc3ccc(F)cc32)CC1 [Example 70, (R)-2-((cis)-4-(6-fluoroquinolin-4-yl)cyclohexyl)-N-(3-(trifluoromethyl)phenyl)propanamide] cannot be ordered by IC50: under 50 nM for the first, under 50 nM for the second.

Compared with CC(C(=O)Nc1ccc(Cl)cc1)N1CCN(c2ccnc3ccc(F)cc23)CC1 (single isomer, unassigned) [Example 130, N-(4-Chlorophenyl)-2-(4-(6-fluoroquinolin-4-yl)piperazin-1-yl)propanamide], CC(C(=O)Nc1ccc(Cl)cc1)N1CCC(Oc2ccc3nccc(Cl)c3c2)CC1 (single isomer, unassigned) [Example 94] is lower in IC50: over 250 nM for the first, under 250 nM for the second. The second is the more potent here.

CCC(C(=O)Nc1ccc(Cl)cc1)C1CCC(c2ccnc3ccc(F)cc23)CC1 (mixture of isomers) [Example 154, N-(4-Chlorophenyl)-2-(4-(6-fluoroquinolin-4-yl)cyclohexyl)butanamide] and C[C@@H](C(=O)Nc1ccc(Cl)cc1)[C@H]1CC[C@H](c2ccnc3ccc(I)cc32)CC1 (single isomer, unassigned) [Example 152d] cannot be ordered by IC50: under 50 nM for the first, under 50 nM for the second.

Going from O=C(CC1CCN(Cc2ccnc3ccccc23)CC1)Nc1ccc(Cl)cc1 [Example 113, N-(4-Chlorophenyl)-2-(1-(quinolin-4-ylmethyl)piperidin-4-yl)acetamide] to O=C(CC1CCN(c2ccnc3ccc(F)cc23)CC1)Nc1ccc(Br)cc1 [Example 117], the IC50 rises from under 50 nM to over 250 nM. The first is the more potent here.

CC(C(=O)Nc1ccc(Cl)cc1)N1CCN(c2ccnc3ccc(F)cc23)CC1 (single isomer, unassigned) [Example 129, N-(4-Chlorophenyl)-2-(4-(6-fluoroquinolin-4-yl)piperazin-1-yl)propanamide] and C[C@@H](C(=O)Nc1ccc2c(c1)OC(F)(F)O2)[C@H]1CC[C@@H](c2ccnc3ccc(F)cc32)CC1 [Example 61, (R)-N-(2,2-difluorobenzo[d][1,3]dioxol-5-yl)-2-((cis)-4-(6-fluoroquinolin-4-yl)cyclohexyl)propanamide] cannot be ordered by IC50: under 250 nM for the first, under 50 nM for the second.

Work on CCC(C(=O)Nc1ccc(Cl)cc1)[C@H]1CC[C@H](Oc2cc(C(F)(F)F)nc3ccccc23)CC1 (mixture of isomers) [Example 84, (±)—N-(4-Chlorophenyl)-2-((trans)-4-((2-(trifluoromethyl)quinolin-4-yl)oxy)cyclohexyl)butanamide] yielded an IC50 of over 250 nM.
